These results are taken from patent US8957074B2 (Novartis AG, priority 2010, dated 2015).

Experiment [1] deals with phosphorylation of pRb at the Ser780 site in JeKo-1 mantle cell lymphoma cells. The experiment in a line: CDK4 cellular assay: ELISA of pRb phosphorylation at Ser780 in JeKo-1 cells. The conditions noted are these: Homo sapiens. It counts as cell-based. Background: In an ELISA, binding on a coated surface is turned into a signal by an enzyme label.
A further experiment concerns the target CDK1/cyclin B (Homo sapiens (Human), UniProt P06493). The experiment in a line: CDK1/cyclin B enzymatic activity assay (IMAP-FP). It counts as biochemical. From the text: CDK1/Cyclin B Enzymatic Activity Assay
A 384-well microtiter IMAP-FP™ (Molecular Devices Trade Mark Technology) endpoint assay was used for CDK1/cyclin B kinase activity measurements. The same assay was used for IC50 determination of small molecule inhibitors.

Another experiment concerns the target CDK4/cyclin D1 (Homo sapiens (Human), UniProt P11802). The experiment in a line: CDK4/cyclin D1 enzymatic activity assay (TR-FRET, phosphorylation of pRb at Ser780). It counts as biochemical. An outline of the steps:
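Phosphorylation at pRb Ser780, detected by TR-FRET, gave IC50s and kinetics. Enzyme: baculovirus/Sf21-expressed human CDK4/cyclin D1. ATP at 3 μM initiated the reaction; EDTA (pH 8.0) stopped it after 60 min at 22° C.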
On the technique in general: In TR-FRET formats the signal depends on donor and acceptor labels being close together.

Setting [2] is: JeKo-1 cells, p-pRb % inhibition adjusted with total pRb levels, read-out: Normalized cellular ppRb inhibition IC50.
[3] abbreviates: JeKo-1 cells, p-pRb Ser780 ELISA, non-normalized, read-out: Cellular ppRb inhibition IC50.
The mark [4] stands for this setting: […] CDK1/cyclin B, 100 nM Tamra Histone-H1 peptide, 20 μM ATP, 120 min at room temperature, read-out: Biochemical CDK1 enzyme IC50.
Setting [5] is: 0.3 nM CDK4/cyclin D1, 150 nM biotin-pRb (773-924), 3 μM ATP, 60 min at 22° C., read-out: Biochemical CDK4 enzyme IC50.
Where [6] appears, read: JeKo-1, read-out: Cellular ppRb inhibition IC50.
The mark [7] stands for this setting: 0.25 nM CDK1/cyclin B, 100 nM Tamra Histone-H1 peptide, 20 μM ATP, 120 min at room temperature, read-out: Biochemical CDK1 enzyme IC50.
The mark [8] stands for this setting: JeKo-1, JeKo-1 cells, p-pRb % inhibition adjusted with total pRb levels, read-out: Normalized cellular ppRb inhibition IC50.
Setting [9] is: JeKo-1, JeKo-1 cells, p-pRb Ser780 ELISA, non-normalized, read-out: Cellular ppRb inhibition IC50.
[10] abbreviates: JeKo-1, read-out: Normalized cellular ppRb inhibition IC50.

Each structure is given as a SMILES string. pIC50: −log10 of the molar value. Like-named read-outs stand apart in the source and are kept apart here.

Sequence of CDK1/cyclin B (P06493 whole entry, species assumed): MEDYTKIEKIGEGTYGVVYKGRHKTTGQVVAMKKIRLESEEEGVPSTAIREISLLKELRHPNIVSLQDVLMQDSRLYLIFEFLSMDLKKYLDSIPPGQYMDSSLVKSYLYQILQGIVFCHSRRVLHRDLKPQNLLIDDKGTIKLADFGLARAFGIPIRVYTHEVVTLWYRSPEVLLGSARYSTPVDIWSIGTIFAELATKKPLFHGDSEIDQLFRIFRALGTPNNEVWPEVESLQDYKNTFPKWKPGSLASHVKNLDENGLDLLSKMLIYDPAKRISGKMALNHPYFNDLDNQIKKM
Sequence of CDK1/cyclin B (P14635 whole entry partner, species assumed): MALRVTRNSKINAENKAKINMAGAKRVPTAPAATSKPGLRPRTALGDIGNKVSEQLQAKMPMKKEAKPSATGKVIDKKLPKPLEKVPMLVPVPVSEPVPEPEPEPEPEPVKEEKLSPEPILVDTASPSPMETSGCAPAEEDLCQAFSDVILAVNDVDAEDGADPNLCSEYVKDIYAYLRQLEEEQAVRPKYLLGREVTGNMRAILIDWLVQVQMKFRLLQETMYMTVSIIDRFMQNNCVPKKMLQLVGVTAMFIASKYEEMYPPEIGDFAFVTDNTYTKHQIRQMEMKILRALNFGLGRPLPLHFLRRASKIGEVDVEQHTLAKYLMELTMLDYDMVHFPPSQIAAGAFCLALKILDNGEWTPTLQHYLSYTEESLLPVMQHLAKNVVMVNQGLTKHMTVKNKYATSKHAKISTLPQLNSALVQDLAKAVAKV
Sequence of CDK4/cyclin D1 (P11802 whole entry): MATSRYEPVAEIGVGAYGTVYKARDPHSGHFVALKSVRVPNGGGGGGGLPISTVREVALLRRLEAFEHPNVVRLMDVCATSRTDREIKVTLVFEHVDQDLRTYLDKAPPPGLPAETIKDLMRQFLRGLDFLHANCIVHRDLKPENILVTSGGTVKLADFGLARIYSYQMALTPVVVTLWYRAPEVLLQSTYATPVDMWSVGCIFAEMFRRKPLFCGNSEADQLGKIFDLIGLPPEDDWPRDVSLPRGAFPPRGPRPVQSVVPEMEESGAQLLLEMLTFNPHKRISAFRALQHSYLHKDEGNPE
Sequence of CDK4/cyclin D1 (P24385 whole entry partner): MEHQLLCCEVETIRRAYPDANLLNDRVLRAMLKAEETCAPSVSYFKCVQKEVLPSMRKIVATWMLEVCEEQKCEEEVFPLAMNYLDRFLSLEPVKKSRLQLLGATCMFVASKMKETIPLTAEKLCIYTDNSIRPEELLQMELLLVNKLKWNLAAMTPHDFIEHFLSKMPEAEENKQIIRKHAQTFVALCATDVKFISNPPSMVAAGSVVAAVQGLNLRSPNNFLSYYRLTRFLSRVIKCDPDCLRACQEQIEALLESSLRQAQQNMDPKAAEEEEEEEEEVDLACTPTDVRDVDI

For orientation: pIC50 means the IC50 on a negative log10 scale, so that one unit is a factor of ten. Consider `CN(C)C(=O)c1cc2cnc(Nc3ccc(N4CC5(CCCNCC5)OC4=O)cn3)nc2n1C1CCCC1` (stereo not shown) [Example 103, 7-cyclopentyl-N,N-dimethyl-2-(5-(2-oxo-1-oxa-3,8-diazaspiro[4.6]undecan-3-yl)pyridin-2-ylamino)-7H-pyrrolo[2,3-d]pyrimidine-6-carboxamide], for which the pIC50 in experiment [1] (setting [2]) was 6.77 to 7.19; in experiment [1] (setting [3]), 7.14 to 7.62; at CDK1/cyclin B (setting [4]), less than 4.82; on CDK4/cyclin D1 (setting [5]), 7.77.
For `CN(C)C(=O)c1cc2cnc(Nc3ccc(C(=O)N4CCN5CCC4CC5)cn3)nc2n1C1CCCC1` [Example 48, 7-Cyclopentyl-2-[5-(1,4-diaza-bicyclo[3.2.2]nonane-4-carbonyl)-pyridin-2-ylamino]-7H-pyrrolo[2,3-d]pyrimidine-6-carboxylic acid dimethylamide], in that order: 6.64, 6.82, less than 4.82 and 7.62.
On to `CN(C)C(=O)c1cc2cnc(Nc3ccc(C(=O)N4CC5CC(C4)N(CC(F)(F)F)C5)cn3)nc2n1C1CCCC1` (stereo not shown) [Example 12, 7-Cyclopentyl-2-{5-[6-(2,2,2-trifluoro-ethyl)-3,6-diaza-bicyclo[3.2.1]octane-3-carbonyl]-pyridin-2-ylamino}-7H-pyrrolo[2,3-d]pyrimidine-6-carboxylic acid dimethylamide], for which the pIC50 in experiment [1] (setting [2]) was 6.14; in experiment [1] (setting [3]), 6.59; on CDK1/cyclin B (setting [4]), less than 4.82; on CDK4/cyclin D1 (setting [5]) it was 7.31.
For `CN(C)C(=O)c1cc2cnc(Nc3ccc(N4CC5CC5(N)C4)cn3)nc2n1C1CCCC1` (stereo not shown) [Example 78, 2-[5-(1-Amino-3-aza-bicyclo[3.1.0]hex-3-yl)-pyridin-2-ylamino]-7-cyclopentyl-7H-pyrrolo[2,3-d]pyrimidine-6-carboxylic acid dimethylamide], the values for the pIC50 (in experiment [1] (setting [6]); on CDK1/cyclin B (setting [7]); on CDK4/cyclin D1 (setting [5])) were 7.23, less than 4.82 and 7.12, respectively.
On to `CN(C)C(=O)c1cc2cnc(Nc3ccc(C(=O)N4CC5CCC(C4)N5)cn3)nc2n1C1CCCCCC1` [Example 4, 2-(5-(3,8-diazabicyclo[3.2.1]octane-3-carbonyl)pyridin-2-ylamino)-7-cycloheptyl-N,N-dimethyl-7H-pyrrolo[2,3-d]pyrimidine-6-carboxamide], for which the pIC50 in experiment [1] (setting [8]) is 8.00; in experiment [1] (setting [9]), 8.05; at CDK1/cyclin B (setting [4]), 5.15; on CDK4/cyclin D1 (setting [5]) it was 8.40.
For the compound `CN(C)C(=O)c1cc2cnc(Nc3ccc(N4C[C@H]5CNC[C@H]5CC4=O)cn3)nc2n1C1CCCC1` (stereo in doubt) [Example 91, 7-cyclopentyl-N,N-dimethyl-2-(5-(cis-6-oxotetrahydro-1H-pyrrolo[3,4-c]pyridin-5(6H,7H,7aH)-yl)pyridin-2-ylamino)-7H-pyrrolo[2,3-d]pyrimidine-6-carboxamide], the pIC50 was 7.57 to 8.00 in experiment [1] (setting [6]), 7.13 to 7.66 in experiment [1] (setting [10]), 4.83 to 4.88 at CDK1/cyclin B (setting [7]) and 8.15 to 8.30 at CDK4/cyclin D1 (setting [5]).
For `CN(C)C(=O)c1cc2cnc(Nc3ccc(N4CC5CNCC5CC4=O)cn3)nc2n1C1CCCCCC1` (racemic) [Example 87, 7-cycloheptyl-N,N-dimethyl-2-(5-(cis-6-oxotetrahydro-1H-pyrrolo[3,4-c]pyridin-5(6H,7H,7aH)-yl)pyridin-2-ylamino)-7H-pyrrolo[2,3-d]pyrimidine-6-carboxamide], the pIC50 in experiment [1] (setting [6]) is 8.10 to 8.30; in experiment [1] (setting [10]) it was 7.82 to 8.22; at CDK1/cyclin B (setting [4]), 5.38; on CDK4/cyclin D1 (setting [5]) it was more than 8.30.
Regarding `CN(C)C(=O)c1cc2cnc(Nc3ccc(C(=O)N4CC5CCC(C4)N5)cn3)nc2n1C1CCCC1` [Example 18, 7-Cyclopentyl-2-[5-(3,8-diaza-bicyclo[3.2.1]octane-3-carbonyl)-pyridin-2-ylamino]-7H-pyrrolo[2,3-d]pyrimidine-6-carboxylic acid dimethylamide], the pIC50 was 7.05 to 7.59 in experiment [1] (setting [8]), 7.43 to 7.92 in experiment [1] (setting [9]), 4.88 on CDK1/cyclin B (setting [4]) and 7.62 to 8.10 against CDK4/cyclin D1.
Take `CN(C)C(=O)c1cc2cnc(Nc3ccc(N4C[C@H]5CC[C@@H](CC4=O)N5)cn3)nc2n1C1CCC1` [Example 136, 7-Cyclobutyl-2-[5-((1R,6S)-4-oxo-3,9-diaza-bicyclo[4.2.1]non-3-yl)-pyridin-2-ylamino]-7H-pyrrolo[2,3-d]pyrimidine-6-carboxylic acid dimethylamide]: the pIC50 was 6.66 in experiment [1] (setting [8]), 7.11 in experiment [1] (setting [9]), less than 4.82 on CDK1/cyclin B (setting [4]) and 7.27 at CDK4/cyclin D1 (setting [5]).
As for `CN(C)C(=O)c1cc2cnc(Nc3ccc(C(=O)N4CC5CCC(C4)N5C(=O)C4CCCN4)cn3)nc2n1C1CCCC1` (stereo not shown) [Example 61, 7-Cyclopentyl-2-{5-[8-(pyrrolidine-2-carbonyl)-3,8-diaza-bicyclo[3.2.1]octane-3-carbonyl]-pyridin-2-ylamino}-7H-pyrrolo[2,3-d]pyrimidine-6-carboxylic acid dimethylamide], the pIC50 in experiment [1] (setting [2]) is 7.28; in experiment [1] (setting [3]), 7.68; at CDK1/cyclin B (setting [4]) it was less than 4.82; at CDK4/cyclin D1 (setting [5]) it was 7.70.
On to `CN(C)C(=O)c1cc2cnc(Nc3ccc(N4C[C@@H]5CC[C@H](CC4=O)N5)cn3)nc2n1-c1ccccc1` [Example 129, 2-[5-((1S,6R)-4-Oxo-3,9-diaza-bicyclo[4.2.1]non-3-yl)-pyridin-2-ylamino]-7-phenyl-7H-pyrrolo[2,3-d]pyrimidine-6-carboxylic acid dimethylamide], for which the pIC50 in experiment [1] (setting [8]) was 6.66; in experiment [1] (setting [9]) it was 6.71; on CDK1/cyclin B (setting [4]), less than 4.82; on CDK4/cyclin D1 (setting [5]) it was 7.32.
Turning to `CN(C)C(=O)c1cc2cnc(Nc3ccc(C(=O)N4CC5CCC(C4)N5)cn3)nc2n1C1C[C@H]2CC[C@@H]1C2` (stereo partly drawn) [Example 76, 7-(1R,2R,4S)-Bicyclo[2.2.1]hept-2-yl-2-[5-(3,8-diaza-bicyclo[3.2.1]octane-3-carbonyl)-pyridin-2-ylamino]-7H-pyrrolo[2,3-d]pyrimidine-6-carboxylic acid dimethylamide], the pIC50 in experiment [1] (setting [8]) was 6.67; in experiment [1] (setting [9]), 6.80; against CDK1/cyclin B, less than 4.82; on CDK4/cyclin D1 (setting [5]) it was 7.68.
Regarding `CN(C)C(=O)c1cc2cnc(Nc3ccc(C(=O)N4CC5CCC(C4)C5(C)O)cn3)nc2n1C1CCCCCC1` (stereo not shown) [Example 6, 7-cycloheptyl-2-(5-(8-hydroxy-8-methyl-3-azabicyclo[3.2.1]octane-3-carbonyl)pyridin-2-ylamino)-N,N-dimethyl-7H-pyrrolo[2,3-d]pyrimidine-6-carboxamide], the pIC50 in experiment [1] (setting [2]) is 6.05; in experiment [1] (setting [3]) it was 6.83; at CDK1/cyclin B (setting [4]), less than 4.82; at CDK4/cyclin D1 (setting [5]), 6.73.
As for `CN(C)C(=O)c1cc2cnc(Nc3ccc(N4C[C@@H]5CC[C@H](CC4=O)N5)cn3)nc2n1C1CCCCC1` [Example 132, 7-Cyclohexyl-2-[5-((1S,6R)-4-oxo-3,9-diaza-bicyclo[4.2.1]non-3-yl)-pyridin-2-ylamino]-7H-pyrrolo[2,3-d]pyrimidine-6-carboxylic acid dimethylamide], the pIC50 in experiment [1] (setting [8]) was 7.33 to 7.55; in experiment [1] (setting [9]), 7.30 to 7.68; at CDK1/cyclin B (setting [4]), less than 4.82; at CDK4/cyclin D1 (setting [5]), 7.72.
In the case of `CN(C)C(=O)c1cc2cnc(Nc3ccc(N4C[C@]5(CCCNC5)OC4=O)cn3)nc2n1C1CCCC1` [Example 110, 7-Cyclopentyl-2-[5-((R)-2-oxo-1-oxa-3,7-diaza-spiro[4.5]dec-3-yl)-pyridin-2-ylamino]-7H-pyrrolo[2,3-d]pyrimidine-6-carboxylic acid dimethylamide], the pIC50 in experiment [1] (setting [2]) was 7.21; in experiment [1] (setting [3]), 7.39; on CDK1/cyclin B (setting [4]), less than 4.82; at CDK4/cyclin D1 (setting [5]), 8.10.
As to `CN(C)C(=O)c1cc2cnc(Nc3ccc(N4CC5CCC(CC4=O)N5)cn3)nc2n1C1CCCCC1` (stereo not shown) [Example 131, 7-cyclohexyl-N,N-dimethyl-2-(5-(4-oxo-3,9-diazabicyclo[4.2.1]nonan-3-yl)pyridin-2-ylamino)-7H-pyrrolo[2,3-d]pyrimidine-6-carboxamide], the pIC50 in experiment [1] (setting [8]) was 7.62; in experiment [1] (setting [9]), 7.85; at CDK1/cyclin B (setting [4]) it was less than 4.82; at CDK4/cyclin D1 (setting [5]) it was 8.40.
The like results for `CN(C)C(=O)c1cc2cnc(Nc3ccc(C(=O)N4C[C@@H]5C[C@]5(N)C4)cn3)nc2n1C1CCCC1` (stereo in doubt) [Example 15, 2-[5-((S)-1-Amino-3-aza-bicyclo[3.1.0]hexane-3-carbonyl)-pyridin-2-ylamino]-7-cyclopentyl-7H-pyrrolo[2,3-d]pyrimidine-6-carboxylic acid dimethylamide] were, in that order, 6.58, 7.37, less than 4.82 and 7.74.
